The results in this text go back to patent publication US20250206761A1, “HALOINDOLE MACROCYCLIC COMPOUNDS FOR THE TREATMENT OF CANCER” (Hoffmann-La Roche Inc., priority 2022, published 2025).

The subject of assay [1] is NCI-H358 (ATCC-CRL5807) cells. The assay is described as follows: Cell viability assay, G12C (NCI-H358). The note with it: Homo sapiens; KRAS cell viability, NCI-H358, 72 hrs, Cell Counting Kit-8. The assay is classed as cell-based, human. The procedure, abridged: (§1)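 After overnight attachment, cells received compounds (0.5% DMSO) for 72 hrs; viability was then quantified with CCK-8, reading OD450 minus OD650, and IC50 values were obtained from a 4-parameter concentration-response fit.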

For assay [2], the system named is AGS (ATCC-CRL-1739) cells. Nature of the assay: Cell viability assay, G12D (AGS). The assay is classed as cell-based, human. The note with it: Homo sapiens, KRAS cell viability, 72 hrs, Cell Counting Kit-8. A digest of the protocol:
as §1

The next assay has as its system SW620 (ATCC-CCL-227). The assay is described as follows: Cell viability assay, G12V (SW620). The note with it: Homo sapiens, SW-620; KRAS cell viability, SW620, 72 hrs, Cell Counting Kit-8. In kind it is cell-based, human. A digest of the protocol:
as §1

In a further assay the target is KRAS G12C-BRAF complex (Homo sapiens (Human), UniProt P01116+P62937, G12C). The assay is described as follows: KRAS-BRAF with CYPA (500 nM) interaction assay (TR-FRET), G12C. In kind it is biochemical.
The target in assay [3] is KRAS G12D binding to BRAF (Homo sapiens (Human), UniProt P01116+P62937, G12D). Nature of the assay: KRAS-BRAF with CYPA (500 nM) interaction assay (TR-FRET), G12D. In kind it is biochemical.
Assay [4] concerns phosphorylation of ERK, KRAS G12C in NCJ-H358 cells. Nature of the assay: pERK inhibition assay, KRAS G12C. In kind it is cell-based, human. The following applies: Homo sapiens, 4 hours. The procedure, abridged: (§2)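 Read-out is OD450 from a TMB colorimetric cell ELISA using a phospho-ERK-specific antibody and HRP-linked secondary. Compounds were incubated with the cells for 4 hours at 0.5% DMSO before fixation and permeabilization. IC50 values come from 4-parameter concentration-response fitting.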

The test system of assay [5] is phosphorylation of ERK, KRAS G12V in SW620. The assay is described as follows: pERK inhibition assay, KRAS G12V. The assay is classed as cell-based, human. The following applies: Homo sapiens, SW-620, SW620, 4 hours. A digest of the protocol:
as §2

SMILES strings stand for the structures.

Chain of KRAS G12C-BRAF complex (P01116-2 other isoform, or with tags, fused parts or gaps G12C): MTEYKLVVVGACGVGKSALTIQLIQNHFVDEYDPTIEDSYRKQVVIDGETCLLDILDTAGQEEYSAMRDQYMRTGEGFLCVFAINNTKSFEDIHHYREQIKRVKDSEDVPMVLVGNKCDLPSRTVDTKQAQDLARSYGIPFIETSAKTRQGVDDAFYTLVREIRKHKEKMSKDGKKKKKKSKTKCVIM
Chain of KRAS G12C-BRAF complex (P62937 whole entry): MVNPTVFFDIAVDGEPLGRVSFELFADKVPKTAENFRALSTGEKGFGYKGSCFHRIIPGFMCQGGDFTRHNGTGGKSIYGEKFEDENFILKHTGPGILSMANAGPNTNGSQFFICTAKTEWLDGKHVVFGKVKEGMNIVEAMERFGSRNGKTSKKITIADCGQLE
Chain of KRAS G12D binding to BRAF (P01116-2 other isoform, or with tags, fused parts or gaps G12D): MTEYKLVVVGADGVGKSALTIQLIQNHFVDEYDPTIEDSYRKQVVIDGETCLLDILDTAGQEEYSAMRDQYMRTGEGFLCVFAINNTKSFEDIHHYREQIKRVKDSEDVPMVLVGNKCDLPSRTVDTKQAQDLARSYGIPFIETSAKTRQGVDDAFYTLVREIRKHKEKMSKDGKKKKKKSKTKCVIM
Chain of KRAS G12D binding to BRAF (P62937 whole entry): as the sequence (P62937 whole entry) above

As to `CCn1c(-c2cc(N3CCOCC3)cnc2[C@H](C)OC)c2c3cc(c(F)cc31)-c1csc(n1)C[C@H](NC(=O)[C@H](C(C)C)N(C)C(=O)C1(F)CCN(C(=O)[C@H](F)Cl)CC1)C(=O)N1CCC[C@H](N1)C(=O)OCC(C)(C)C2` (atropisomer, axis not shown; (M)) [Example 54, 1-[(2R)-2-chloro-2-fluoro-acetyl]-N-[(1S)-1-[[(7S,13S)-21-ethyl-24-fluoro-(20M)-20-[2-[(1S)-1-methoxyethyl]-5-morpholino-3-pyridyl]-17,17-dimethyl-8,14-dioxo-15-oxa-4-thia-9,21,27,28-tetrazapentacyclo[17.5.2.1^2,5.1^9,13.0^22,26]octacosa-1(25),2,5(28),19,22(26),23-hexaen-7-yl]carbamoyl]-2-methyl-propyl]-4-fluoro-N-methyl-piperidine-4-carboxamide], the IC50 in assay [1] was under 1 nM; in assay [2], 72 nM; with SW620 (ATCC-CCL-227), 13 nM; against KRAS G12C-BRAF complex, 19 nM; in assay [3], 303 nM; in assay [4], 2 nM. Besides, 15 nM corresponded to half-maximal inhibition in assay [5] (IC50).

As for `CCn1c(-c2cc(N3CCN(CC(F)(F)F)CC3)cnc2[C@H](C)OC)c2c3cc(c(F)cc31)-c1csc(n1)C[C@H](NC(=O)[C@H](C(C)C)N1CCC3(CN(C(=O)[C@H](F)Cl)C3)C1=O)C(=O)N1CCC[C@H](N1)C(=O)OCC(C)(C)C2` (atropisomer, axis not shown; (M)) [Example 37, (2S)-2-[2-[(2R)-2-chloro-2-fluoro-acetyl]-5-oxo-2,6-diazaspiro[3.4]octan-6-yl]-N-[(7S,13S)-21-ethyl-24-fluoro-(20M)-20-[2-[(1S)-1-methoxyethyl]-5-[4-(2,2,2-trifluoroethyl)piperazin-1-yl]-3-pyridyl]-17,17-dimethyl-8,14-dioxo-15-oxa-4-thia-9,21,27,28-tetrazapentacyclo[17.5.2.1^2,5.1^9,13.0^22,26]octacosa-1(25),2,5(28),19,22(26),23-hexaen-7-yl]-3-methyl-butanamide], the concentration for half-maximal inhibition (IC50) in assay [1] was under 1 nM; in assay [2], 159 nM; in the assay with SW620 (ATCC-CCL-227), 114 nM; against KRAS G12C-BRAF complex, 39 nM; in assay [3] it was 964 nM; in assay [4], 3 nM. For the same molecule, the IC50 in assay [5] turned out to be 21 nM.

Turning to `CO[C@@H](C)c1ncc(N2CCN(C)CC2)cc1-c1c2c3cc(c(C)cc3n1CC(F)(F)F)-c1csc(n1)C[C@H](NC(=O)[C@H](C(C)C)N(C)C(=O)C1(F)CCN(C(=O)[C@H](F)Cl)CC1)C(=O)N1CCC[C@H](N1)C(=O)OCC(C)(C)C2` (atropisomer, axis not shown; (M)) [Example 9, 1-[(2R)-2-chloro-2-fluoro-acetyl]-4-fluoro-N-[(1S)-1-[[(7S,13S)-(20M)-20-[2-[(1S)-1-methoxyethyl]-5-(4-methylpiperazin-1-yl)-3-pyridyl]-17,17,24-trimethyl-8,14-dioxo-21-(2,2,2-trifluoroethyl)-15-oxa-4-thia-9,21,27,28-tetrazapentacyclo[17.5.2.1^2,5.1^9,13.0^22,26]octacosa-1(25),2,5(28),19,22(26),23-hexaen-7-yl]carbamoyl]-2-methyl-propyl]-N-methyl-piperidine-4-carboxamide], the IC50 in assay [1] is 7 nM; in assay [2], 505 nM; in the assay with SW620 (ATCC-CCL-227) it was 28 nM; against KRAS G12C-BRAF complex, 176 nM; in assay [3], over 10000 nM; in assay [4], 3 nM. This molecule showed a half-maximal inhibitory concentration (IC50) in assay [5] of 22 nM.

Consider `CCn1c(-c2cc(N3CCOCC3)cnc2[C@H](C)OC)c2c3cc(c(F)cc31)-c1csc(n1)C[C@H](NC(=O)[C@H](C(C)C)N1CC[C@]3(CCN(C(=O)[C@H](F)Cl)C3)C1=O)C(=O)N1CCC[C@H](N1)C(=O)OCC(C)(C)C2` (atropisomer, axis not shown; (M)) [Example 51, (2S)-2-[(5S)-7-[(2R)-2-chloro-2-fluoro-acetyl]-1-oxo-2,7-diazaspiro[4.4]nonan-2-yl]-N-[(7S,13S)-21-ethyl-24-fluoro-(20M)-20-[2-[(1S)-1-methoxyethyl]-5-morpholino-3-pyridyl]-17,17-dimethyl-8,14-dioxo-15-oxa-4-thia-9,21,27,28-tetrazapentacyclo[17.5.2.1^2,5.1^9,13.0^22,26]octacosa-1(25),2,5(28),19,22(26),23-hexaen-7-yl]-3-methyl-butanamide], for which the IC50 is under 1 nM in assay [1]; 2500 nM in assay [2]; 52 nM in the assay on SW620 (ATCC-CCL-227); 74 nM at KRAS G12C-BRAF complex; over 10000 nM in assay [3]; 2 nM in assay [4]. In assay [5], this molecule had a 50% inhibitory concentration (IC50) of 57 nM.

For `CC(C)[C@@H](C(=O)N[C@H]1Cc2cc(O)cc(c2)-c2ccc3c(C(C)(C)C#N)cn(c3c2)CC(C)(C)COC(=O)[C@@H]2CCCN(N2)C1=O)N1CCC2(CN(C(=O)CCl)C2)C1=O` [RM44, reference compound], the half-inhibitory concentration (IC50) in assay [1] is 799 nM; in assay [2] it was 6230 nM; in the assay with SW620 (ATCC-CCL-227), over 10000 nM; against KRAS G12C-BRAF complex, 17 nM; in assay [3], over 10000 nM; in assay [4] it was 1900 nM. This molecule gave a half-inhibitory concentration (IC50) in assay [5] of over 10000 nM.

In the case of `CCn1c(-c2cc(N3CCOCC3)cnc2[C@H](C)OC)c2c3cc(c(F)cc31)-c1csc(n1)C[C@H](NC(=O)[C@H](C(C)C)N1CC[C@@]3(CCN(C(=O)[C@H](F)Cl)C3)C1=O)C(=O)N1CCC[C@H](N1)C(=O)OCC(C)(C)C2` (atropisomer, axis not shown; (M)) [Example 53, (2S)-2-[(5R)-7-[(2R)-2-chloro-2-fluoro-acetyl]-1-oxo-2,7-diazaspiro[4.4]nonan-2-yl]-N-[(7S,13S)-21-ethyl-24-fluoro-(20M)-20-[2-[(1S)-1-methoxyethyl]-5-morpholino-3-pyridyl]-17,17-dimethyl-8,14-dioxo-15-oxa-4-thia-9,21,27,28-tetrazapentacyclo[17.5.2.1^2,5.1^9,13.0^22,26]octacosa-1(25),2,5(28),19,22(26),23-hexaen-7-yl]-3-methyl-butanamide], the IC50 in assay [1] was under 1 nM; in assay [2], 1320 nM; with SW620 (ATCC-CCL-227), 932 nM; against KRAS G12C-BRAF complex, 56 nM; in assay [3], over 10000 nM; in assay [4], 3 nM. It took 61 nM to reach half-maximal inhibition in assay [5] (IC50).

In the case of `CCn1c(-c2cc(N3CCOCC3)cnc2[C@H](C)OC)c2c3cc(c(F)cc31)-c1csc(n1)C[C@H](NC(=O)[C@H](C(C)C)N1CCC3(CN(C(=O)[C@H](F)Cl)C3)C1=O)C(=O)N1CCC[C@H](N1)C(=O)OCC(C)(C)C2` (atropisomer, axis not shown; (M)) [Example 52, (2S)-2-[2-[(2R)-2-chloro-2-fluoro-acetyl]-5-oxo-2,6-diazaspiro[3.4]octan-6-yl]-N-[(7S,13S)-21-ethyl-24-fluoro-(20M)-20-[2-[(1S)-1-methoxyethyl]-5-morpholino-3-pyridyl]-17,17-dimethyl-8,14-dioxo-15-oxa-4-thia-9,21,27,28-tetrazapentacyclo[17.5.2.1^2,5.1^9,13.0^22,26]octacosa-1(25),2,5(28),19,22(26),23-hexaen-7-yl]-3-methyl-butanamide], the IC50 in assay [1] was under 1 nM; in assay [2], 4720 nM; in the assay on SW620 (ATCC-CCL-227) it was 196 nM; on KRAS G12C-BRAF complex, 115 nM; in assay [3], 2060 nM; in assay [4], 4 nM. Also, the IC50 in assay [5] stood at 58 nM.
